Laboratory results as given in US20100216994A1, “USE OF NOVEL COMPOUND HAVING AFFINITY FOR AMYLOID, AND PROCESS FOR PRODUCTION OF THE SAME” (NIHON MEDI-PHYSICS CO., LTD., priority 2007, published 2010).
Like-named read-outs stand apart in the source and are kept apart here.

Legend:
[1] = [^125I]-labeled compounds, normal mice, brain; cited from earlier work
[2] = Partition coefficient based on the octanol extraction method (logPoctanol); conditions: octanol / 10 mmol/L phosphate buffer (pH 7.4)
Experimental: 10 μL each of the prepared sample solution was respectively added to 2 mL of octanol, further, 2 mL of 10 mmol/L phosphate buffer (pH 7.4) was added, and stirred for 30 seconds. After the mixture was centrifuged with a low-speed centrifuge (2000 rpm×60 min.), the octanol layer and the water layer were sampled each in an amount of 1 mL, and subjected to measurement of radioactivity count with an autowell gamma system (Type: ARC-301B, manufactured by Aloka). Using the obtained radioactivity count, logPoctanol was calculated in accordance with the equation (2).

[3] = system: intracerebral amyloid (aggregated Aβ1-42); assay: Confirmation of imaging of amyloid in brain (autoradiogram of brain slice, amyloid injected into amygdaloid nucleus); assay type: in vivo, male Wistar rat; conditions: rat, tail vein injection, brain removed 60 minutes after injection
Experimental: (§1) The following experiment was carried out in order to examine whether amyloid in brain can be imaged by the compound of the present invention.
(§2) (1) Aβ1-42 (Wako) was dissolved in phosphate buffer (pH 7.4) and shaken at 37° C. for 72 hours, to obtain a 1 mg/mL suspension of aggregated Aβ (hereinafter referred to as amyloid suspension in this Example).
(§3) (2) Under thiopental anesthesia, […] of the amyloid suspension was injected into an amygdaloid nucleus on one side of a male Wistar rat (7-week old). As a control, 2.5 μL of a phosphate buffered physiological saline solution (pH 7.4) was injected into an amygdaloid nucleus on the other side of the rat. The rats were examined 1 day after the injection of the amyloid suspension and the phosphate buffered physiological saline solution (pH 7.4).
(§4) This sample solution was injected under thiopental anesthesia into the rat through the tail vein (dosage: 0.5 mL, dosed radioactivity: 16 MBq equivalent).
(§5) (4) Brain was removed 60 minutes after the injection to prepare a brain slice of 10 μm in thickness with a microtome (type: CM3050S, manufactured by LEICA). The brain slice was exposed to an imaging plate for 20 hours, and then image analysis was carried out by use of a Bio-imaging Analyzer (type: BAS-2500; manufactured by FUJIFILM Corporation).

[4] = target: T1, intracerebral amyloid (aggregated Aβ1-42) (Homo sapiens, UniProt P05067); assay: as above; assay type: in vivo, male Wistar rat; conditions: rat, tail vein injection, brain removed 60 minutes after injection
T1 construct: Aβ1-42 (Wako) was dissolved in phosphate buffer (pH 7.4); purchased Wako
Experimental: as §1, §2, §3, §4, §5

[5] = Transferability into brain and clearance (radioactive accumulation in brain after intravenous injection); conditions: rats
Experimental: Using [^123I]-2-(4′-iodophenyl)-6-methoxyimidazo[1,2-a]pyridine and [^123I]-2-(4′-fluorophenyl)-6-iodoimidazo[1,2-a]pyridine, a time course change of radioactive accumulation in brain of male Wistar rats (7-week old) was measured.
The rats were sacrificed by bleeding from abdominal artery, and brains were removed and subjected to measurement of mass of brains (hereinafter referred to as A in this Example) and further subjected to measurement of radioactivity with a single channel analyzer (detector type: SP-20 manufactured by OHYO KOKEN KOGYO Co., Ltd.) 2, 5, 30 and 60 minutes after the injection. Also, radioactivity (hereinafter referred to as B in this Example) of the rest of the whole body was measured in the same manner as above.
The same procedures as above was conducted and subjected to the same procedures as above to calculate radioactive accumulation per unit weight of a brain (% ID/g) at the respective time points were calculated.
Three animals were used for Example 15, Example 16 and Comparative Example 2 at the respective time points.

[6] = SD rat; for radioactive distribution per unit weight, Adrenal gland, Average / radioactive distribution per unit weight, Blood, Average / radioactive distribution per unit weight, Bone, Average / radioactive distribution per unit weight, Brain, Average / radioactive distribution per unit weight, Heart, Average / radioactive distribution per unit weight, Kidney, Average / radioactive distribution per unit weight, Large intestine, Average / radioactive distribution per unit weight, Liver, Average / radioactive distribution per unit weight, Lung, Average / radioactive distribution per unit weight, Marrow, Average / radioactive distribution per unit weight, Muscle, Average / radioactive distribution per unit weight, Pancreas, Average / radioactive distribution per unit weight, Small intestine, Average / radioactive distribution per unit weight, Spleen, Average / radioactive distribution per unit weight, Stomach, Average: tail vein
Experimental: 0.2 mL each of the prepared sample solution was administered under non-thiopental anesthesia into the tail vein of the above rat. The rats were sacrificed by bleeding from abdominal artery, and each organ shown in Table 4 was removed 5, 30, 60 and 180 minutes after the administration. Each removed organ was subjected to measurement of mass and radioactivity with the same method as in Example 15. Also, radioactivity of the whole body of the rat after removal of the organs (hereinafter, refers to rest of the whole body) was measured. Using these measurement results, radioactive distribution per unit weight of each organ (% ID/g) at the respective time points was calculated in accordance with the following formula (4).
Three animals were used for the experiment at the respective time points.
R^T: Radioactivity of target organ (cpm) RS: Sum of radioactivity of all the organs (cpm)
R^R: Radioactivity of the rest of the whole body (cpm)
M^T: Mass of target organ (g)

[7] = target: aggregated Aβ (amyloid) from Aβ1-42 (Homo sapiens, UniProt P05067)
Description: Affinity of the present compounds with amyloid was examined by the following in vitro binding tests.

T1 sequence (P05067 672-713): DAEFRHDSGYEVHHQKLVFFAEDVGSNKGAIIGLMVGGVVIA
aggregated Aβ (amyloid) from Aβ1-42, sequence (P05067 672-713): as above

## CN(C)c1ccc(-c2nc3ccc(I)cc3o2)cc1 [IBOX, 6-iodo-2-[4′-(N,N-dimethylamino)phenyl]benzoxazole]
[1]
  clearance from normal tissues: insufficient in clearance from normal tissues

## CN(C)c1ccc(-c2nc3ccc(I)cc3s2)cc1 [TZDM, 6-iodo-2-[4′-(N,N-dimethylamino)phenyl]benzothiazole]
[1]
  clearance from normal tissues: insufficient in clearance from normal tissues

## Fc1ccc(-c2cn3cc([123I])ccc3n2)cc1 [[^123I]-2-(4′-fluorophenyl)-6-iodoimidazo[1,2-a]pyridine]
[2]
  logPoctanol value: 2.3
[3]
  accumulation of radioactivity in amygdaloid nucleus on the side to which the physiological saline solution was injected: no significant accumulation of radioactivity
[4]
  accumulation of radioactivity in amygdaloid nucleus on the side to which the amyloid suspension was injected: marked accumulation of radioactivity
[5]; after 2 min.
  Radioactive accumulation per unit weight in brain: 1.00 % ID/g
[5]; after 5 min.
  Radioactive accumulation per unit weight in brain: 0.72 % ID/g
[5]; after 30 min.
  Radioactive accumulation per unit weight in brain: 0.12 % ID/g
[5]; after 60 min.
  Radioactive accumulation per unit weight in brain: 0.05 % ID/g

## COc1ccc2nc(-c3ccc([123I])cc3)cn2c1 [[^123I]-2-(4′-iodophenyl)-6-methoxyimidazo[1,2-a]pyridine]
[2]
  logPoctanol value: 2.3
[3]
  accumulation of radioactivity in amygdaloid nucleus on the side to which the physiological saline solution was injected: no significant accumulation of radioactivity
[4]
  accumulation of radioactivity in amygdaloid nucleus on the side to which the amyloid suspension was injected: marked accumulation of radioactivity
[6]; bone
  ratio (% ID/g at 5 minutes after the administration)/(% ID/g at 180 minutes after the administration), bone: 3
[6]; brain
  ratio (% ID/g at 5 minutes after the administration)/(% ID/g at 180 minutes after the administration), brain: 43
[6]; distribution moved from small intestine to large intestine
  excretion / clearance to the outside of the body: biliary-excreted rapidly after the administration
[6]; heart
  ratio (% ID/g at 5 minutes after the administration)/(% ID/g at 180 minutes after the administration), heart: 12
[6]; lung
  ratio (% ID/g at 5 minutes after the administration)/(% ID/g at 180 minutes after the administration), lung: 7
[6]; pancreas
  ratio (% ID/g at 5 minutes after the administration)/(% ID/g at 180 minutes after the administration), pancreas: 8
[6]; 5 min. after administration
  radioactive distribution per unit weight, Adrenal gland, Average: 5.163 % ID/g
  radioactive distribution per unit weight, Blood, Average: 0.290 % ID/g
  radioactive distribution per unit weight, Bone, Average: 0.223 % ID/g
  radioactive distribution per unit weight, Brain, Average: 1.175 % ID/g
  radioactive distribution per unit weight, Heart, Average: 0.752 % ID/g
  radioactive distribution per unit weight, Kidney, Average: 1.434 % ID/g
  radioactive distribution per unit weight, Large intestine, Average: 0.122 % ID/g
  radioactive distribution per unit weight, Liver, Average: 1.857 % ID/g
  radioactive distribution per unit weight, Lung, Average: 1.109 % ID/g
  radioactive distribution per unit weight, Marrow, Average: 0.937 % ID/g
  radioactive distribution per unit weight, Muscle, Average: 0.344 % ID/g
  radioactive distribution per unit weight, Pancreas, Average: 0.709 % ID/g
  radioactive distribution per unit weight, Small intestine, Average: 0.729 % ID/g
  radioactive distribution per unit weight, Spleen, Average: 0.460 % ID/g
  radioactive distribution per unit weight, Stomach, Average: 0.203 % ID/g
[6]; 30 min. after administration
  radioactive distribution per unit weight, Adrenal gland, Average: 2.364 % ID/g
  radioactive distribution per unit weight, Blood, Average: 0.240 % ID/g
  radioactive distribution per unit weight, Bone, Average: 0.136 % ID/g
  radioactive distribution per unit weight, Brain, Average: 0.220 % ID/g
  radioactive distribution per unit weight, Heart, Average: 0.220 % ID/g
  radioactive distribution per unit weight, Kidney, Average: 2.102 % ID/g
  radioactive distribution per unit weight, Large intestine, Average: 0.096 % ID/g
  radioactive distribution per unit weight, Liver, Average: 1.197 % ID/g
  radioactive distribution per unit weight, Lung, Average: 0.410 % ID/g
  radioactive distribution per unit weight, Marrow, Average: 0.285 % ID/g
  radioactive distribution per unit weight, Muscle, Average: 0.092 % ID/g
  radioactive distribution per unit weight, Pancreas, Average: 0.338 % ID/g
  radioactive distribution per unit weight, Small intestine, Average: 3.964 % ID/g
  radioactive distribution per unit weight, Spleen, Average: 0.207 % ID/g
  radioactive distribution per unit weight, Stomach, Average: 1.081 % ID/g
[6]; 60 min. after administration
  radioactive distribution per unit weight, Adrenal gland, Average: 1.775 % ID/g
  radioactive distribution per unit weight, Blood, Average: 0.203 % ID/g
  radioactive distribution per unit weight, Bone, Average: 0.102 % ID/g
  radioactive distribution per unit weight, Brain, Average: 0.111 % ID/g
  radioactive distribution per unit weight, Heart, Average: 0.134 % ID/g
  radioactive distribution per unit weight, Kidney, Average: 1.630 % ID/g
  radioactive distribution per unit weight, Large intestine, Average: 0.099 % ID/g
  radioactive distribution per unit weight, Liver, Average: 0.836 % ID/g
  radioactive distribution per unit weight, Lung, Average: 0.243 % ID/g
  radioactive distribution per unit weight, Marrow, Average: 0.000 % ID/g
  radioactive distribution per unit weight, Muscle, Average: 0.062 % ID/g
  radioactive distribution per unit weight, Pancreas, Average: 0.247 % ID/g
  radioactive distribution per unit weight, Small intestine, Average: 5.924 % ID/g
  radioactive distribution per unit weight, Spleen, Average: 0.154 % ID/g
  radioactive distribution per unit weight, Stomach, Average: 1.476 % ID/g
[6]; 180 min. after administration
  radioactive distribution per unit weight, Adrenal gland, Average: 0.754 % ID/g
  radioactive distribution per unit weight, Blood, Average: 0.139 % ID/g
  radioactive distribution per unit weight, Bone, Average: 0.070 % ID/g
  radioactive distribution per unit weight, Brain, Average: 0.027 % ID/g
  radioactive distribution per unit weight, Heart, Average: 0.061 % ID/g
  radioactive distribution per unit weight, Kidney, Average: 0.643 % ID/g
  radioactive distribution per unit weight, Large intestine, Average: 3.294 % ID/g
  radioactive distribution per unit weight, Liver, Average: 0.374 % ID/g
  radioactive distribution per unit weight, Lung, Average: 0.163 % ID/g
  radioactive distribution per unit weight, Marrow, Average: 0.000 % ID/g
  radioactive distribution per unit weight, Muscle, Average: 0.027 % ID/g
  radioactive distribution per unit weight, Pancreas, Average: 0.088 % ID/g
  radioactive distribution per unit weight, Small intestine, Average: 2.870 % ID/g
  radioactive distribution per unit weight, Spleen, Average: 0.084 % ID/g
  radioactive distribution per unit weight, Stomach, Average: 1.272 % ID/g
[5]; after 2 min.
  Radioactive accumulation per unit weight in brain: 1.26 % ID/g
[5]; after 5 min.
  Radioactive accumulation per unit weight in brain: 0.89 % ID/g
[5]; after 30 min.
  Radioactive accumulation per unit weight in brain: 0.19 % ID/g
[5]; after 60 min.
  Radioactive accumulation per unit weight in brain: 0.09 % ID/g

## COc1ccc(-c2cn3cc([123I])ccc3n2)cc1 [[^123I]-6-iodo-2-(4′-methoxyphenyl)imidazo[1,2-a]pyridine]
[2]
  logPoctanol value: 1.7
[3]
  accumulation of radioactivity in amygdaloid nucleus on the side to which the physiological saline solution was injected: no significant accumulation of radioactivity
[4]
  accumulation of radioactivity in amygdaloid nucleus on the side to which the amyloid suspension was injected: marked accumulation of radioactivity
[5]; after 2 min.
  Radioactive accumulation per unit weight in brain: 1.04 % ID/g
[5]; after 5 min.
  Radioactive accumulation per unit weight in brain: 0.72 % ID/g
[5]; after 30 min.
  Radioactive accumulation per unit weight in brain: 0.12 % ID/g
[5]; after 60 min.
  Radioactive accumulation per unit weight in brain: 0.04 % ID/g

## CN(C)c1ccc(-c2cn3cc([123I])ccc3n2)cc1 [[^123I]-IMPY, reference compound]
[2]
  logPoctanol value: 1.9
[5]; after 2 min.
  Radioactive accumulation per unit weight in brain: 1.19 % ID/g
[5]; after 5 min.
  Radioactive accumulation per unit weight in brain: 0.97 % ID/g
[5]; after 30 min.
  Radioactive accumulation per unit weight in brain: 0.23 % ID/g
[5]; after 60 min.
  Radioactive accumulation per unit weight in brain: 0.09 % ID/g

## COc1ccc2nc(-c3ccc([125I])cc3)cn2c1 [[^125I]-2 (4′-iodophenyl)-6-methoxyimidazo[1,2-a]pyridine]
[7]; amyloid 25, 62.5, 250, 625 and 1000 nmol/L, 22° C., 3 hours, non-specific count B subtracted
  radioactive count specifically attached to amyloid (A−B) versus concentration of amyloid: increase proportionally to the concentration of amyloid
[7]; conclusion from in vitro binding test
  capability of binding to amyloid: highly capable of binding to amyloid

## CN(C)c1ccc(/C=C/c2ccc(I)cc2)cc1 [m-I-SB, (E)-4-dimethylamino-4′-iodostilbene]
[1]
  clearance from normal tissues: insufficient in clearance from normal tissues
